Data taken from patent publication EP4759821A1, “CITRULLINATED SETDB1 POLYPEPTIDE AND USE THEREOF IN DIAGNOSIS OF RHEUMATOID ARTHRITIS” (Xiamen University, priority 2023, dated 2025).
Non-standard residues stand in square brackets, D forms with d. No end group written: not given here. Cit = NC(=O)NCCC[C@H](N)C(=O)O

System: autoantibodies against cit-4 (anti-citrullinated SETDB1 antibody)
Experiment: indirect ELISA of autoantibodies against biotin-conjugated citrullinated short polypeptides in serum
Format: binding, human
Protocol: The autoantibody expression levels of the citrulline markers were detected using an indirect ELISA method. In short, biotin-conjugated short polypeptides were first coated onto PABC plates at a concentration of 50 ng/well. After coating, serum from 24 rheumatoid arthritis (RA) patients and 24 healthy subjects (HC) were diluted 10-fold as primary antibodies and incubated for 30 minutes. HRP-labeled goat anti-human IgG (GAH-HRP) was used as secondary antibody, incubation was performed for 30 minutes, and color development and reading were finally carried out.
The expression level of citrulline marker autoantibodies in patients with rheumatoid arthritis was detected using an indirect ELISA method (see Example 1 for details). In addition, anti-citrullinated peptide antibody (CCP2) was used as a control. […]
The cit-4 antibody level was detected in a CCP2-negative patient population using an indirect ELISA method (see Example 1 for details).
The levels of citrullinated SETDB1 autoantibodies in the serum of patients with different autoimmune diseases (RA rheumatoid arthritis, SLE systemic lupus erythematosus, PSS primary Sjögren's syndrome, and SSc scleroderma) were detected using an indirect ELISA method (see Example 1 for details). […]

NPLLVPLLYDFXXMTAXXXVNXK (NPLLVPLLYDF[Cit][Cit]MTA[Cit][Cit][Cit]VN[Cit]K; also: conjugated with biotin) [cit-4]
level of autoantibodies in rheumatoid arthritis (Example 1, Fig. 1A, serum of 24 RA patients vs 24 healthy subjects (HC), diluted 10-fold, peptide coated 50 ng/well, GAH-HRP secondary antibody): significantly elevated
level of citrullinated SETDB1 autoantibodies (Example 4, Fig. 4A, serum of patients with different autoimmune diseases (RA, SLE, PSS, SSc)): the highest in rheumatoid arthritis
